Columns and labels:
TDAG8 [1] = target: T1, TDAG8 (Homo sapiens, UniProt Q8IYL9); assay: SRE luciferase reporter in TDAG8-transfected HEK293 cells; assay type: cell-based; details: lipid 1 μM, TDAG8-transfected HEK293 cells
T1 construct: expressed in transfected cells

GPR4 [2] = target: T2, GPR4 (Homo sapiens, UniProt P46093); assay: Internalization of GPR4-GFP in HEK293 cells (confocal microscopy); assay type: cell-based; details: 1 μM lipid, 37° C., GPR4-GFP HEK293 cells
T2 construct: were used to generate full length GPR4, which was digested with EcoRI and Xba I and cloned into the pBs3HA vector; expressed in transfected cells
T2 sequence (P46093 whole entry): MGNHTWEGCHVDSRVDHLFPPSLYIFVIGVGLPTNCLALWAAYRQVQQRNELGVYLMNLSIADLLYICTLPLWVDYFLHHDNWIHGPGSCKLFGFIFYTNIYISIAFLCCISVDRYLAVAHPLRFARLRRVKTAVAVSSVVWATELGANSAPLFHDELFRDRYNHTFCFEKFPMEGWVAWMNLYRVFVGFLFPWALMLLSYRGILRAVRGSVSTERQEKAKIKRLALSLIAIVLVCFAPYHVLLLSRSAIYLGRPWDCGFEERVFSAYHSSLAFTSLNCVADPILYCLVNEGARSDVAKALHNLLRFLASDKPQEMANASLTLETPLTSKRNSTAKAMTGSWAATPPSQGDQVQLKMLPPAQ
Experimental: pGPR4-GFP stably expressing HEK293 cells were cultured in 6 cm tissue culture dishes in RPMI1640 with 10% FBS. After 16-24 h serum starvation, cells were treated with different lipids at 37° C. for 2 h. Cells were washed with cold PBS and fixed with 4% paraformaldehyde in PBS. The subcellular localization of GPR4-GFP protein was visualized under a Leica TV confocal fluorescence microscope with a 63× oil immersion lens (Wetzler, Heidelberg, Germany). The excitation and emission wavelengths were 488 nm and 515-540 nm, respectively.
G protein coupled receptors undergo agonist-dependent desensitization and internalization. When HEK293 cells are transfected with the pEGFP-N1 vector, GFP protein is expressed in the cytosol of the cells. The GPR4-GFP and TDAG8-GFP fusion proteins, on the other hand, was expressed only on the plasma membrane.

GPR4 [3] = target: T2, GPR4; assay: Cell migration in modified Boyden chamber, GPR4-ires-GFP vs GFP Swiss 3T3 cells; assay type: cell-based; details: for increase of cell migration over GFP-Swiss 3T3 cells: 100 nM, lower chamber only; for chemokinetic assay: cell motility vs controls: lipid 100 nM in both upper and lower chambers, GFP or GFP-GPR4 Swiss 3T3 cells
Experimental: Chemotaxis was measured in a modified Boyden chamber assay. Briefly, different lipids were added to the lower chambers. GPR4-ires-GFP- and GFP-Swiss 3T3 cells were serum starved for 4 h, trypsinized, and seeded in the upper chambers of Boyden-transwell plates (Corning Inc., Corning, N.Y.). The chambers were incubated for 6 to 8 h. The number of cells that migrated to the lower face of the membrane was counted in 4 random fields. Data are represented as the average ±SD of three independent experiments. For the chemokinetic assay, the same concentrations of lipids were added to both the upper and lower chambers. For Rho inhibition studies, C3-exoenxyme was transiently transfected into Swiss 3T3 cells and cell migration assays were performed 48 hours later.

TDAG8 [4] = target: T1, TDAG8; assay: Binding of phospholipids to TDAG8
Experimental: To characterize the binding of SPC and LPC to GPR4 and TDAG8, we conducted radioligand binding assays. CHO cells were chosen for GPR4 binding assays, since HEK293 cells express relatively high levels of endogenous GPR4. CHO cells stably transfected with empty vector or GPR4 were serum starved for 20 h, then collected after exposure to 2 mM EDTA in PBS. The pelleted cells were stored at −80° C. until use. Binding assays were performed essentially as described previously (Xu et al. (2000) Nat Cell Biol 2, 261-267), except binding was performed at 4° C. Briefly, frozen cells (10^6 cells/ml) were homogenized in a binding buffer. Assays were performed in 96-well plates in triplicate with 100 μl cell homogenate (equivalent to 10^5 cells/well). Different amounts of [^3H]SPC or [^3H]16:0-LPC were added to the cell homogenates in 50 μl of binding buffer, in the presence or absence of cold SPC or 16:0-LPC, or other competitors. The plates were incubated at 4° C. for 120 min, unless otherwise indicated. Cell-bound [^3H]SPC or [^3H]LPC was collected onto a filter (Printed Filtermat A, Wallac, Gaithersburg, Md.) using an automated cell harvester (HARVESTER 96, Tomtec, Orange, Conn.). Specific binding was calculated by subtraction of nonspecific binding (binding detected in the presence of 100-fold excess unlabeled SPC or 16:0-LPC) from the total binding.
Using functional and binding assays, we have identified the ligands for TDAG8.

GPR4 [5] = target: T2, GPR4; assay: ERK MAP kinase activation (phospho-ERK Western blot) in GPR4-infected Swiss 3T3 cells; assay type: cell-based; details: for concentration at which ERK activation was evident / time point at which ERK activation was evident: GPR4-infected Swiss 3T3 cells; for GPR4-dependent ERK activation (in words): GPR4-ires-GFP vs GFP Swiss 3T3 cells, SPC and LPC 100 nM
Outline: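 Swiss 3T3 cells transduced with MSCV GPR4-ires-GFP or empty vector, FACS-sorted for GFP, serum-starved overnight, then stimulated with lipids in DMEM. Phospho-ERK1/2 detected by Western blot with ECL, normalised to total ERK; some cells pretreated with 100 ng/ml PTX for 12–16 h before SPC or LPC.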

TDAG8 [6] = target: T1, TDAG8; assay: TDAG8 receptor internalization; assay type: cell-based
Source text: G protein coupled receptors undergo agonist-dependent desensitization and internalization.

TDAG8 [7] = target: T1, TDAG8; assay: Transwell cell migration of TDAG8-transfected HEK293 cells; assay type: cell-based; details: TDAG8 overexpressed in HEK293 cells
Experimental: (§1) To determine whether GPR4 and/or TDGA8 can mediate the LPC-induced cell migration, we transfected HEK293 cells with GPR4 or TDAG8. Cell migration was performed in Transwell apparatus. GPR4-transfected HEK293 cells, and TDAG8-transfected HEK293 cells migrated to the low-phase of the membrane and the lower chamber of the Transwell in response to SPC and LPC, used at 0.2 μM.

GPR4 [8] = target: T2, GPR4; assay: Transwell cell migration of GPR4-transfected HEK293 cells; assay type: cell-based; details: 0.2 μM
Experimental: as §1

OGR1 = target: T3, OGR1 (Homo sapiens, UniProt Q15743); assay: MAP kinase reporter system in OGR1 co-transfected cells; assay type: cell-based
T3 construct: expressed in transfected cells
T3 sequence (Q15743 whole entry, species assumed): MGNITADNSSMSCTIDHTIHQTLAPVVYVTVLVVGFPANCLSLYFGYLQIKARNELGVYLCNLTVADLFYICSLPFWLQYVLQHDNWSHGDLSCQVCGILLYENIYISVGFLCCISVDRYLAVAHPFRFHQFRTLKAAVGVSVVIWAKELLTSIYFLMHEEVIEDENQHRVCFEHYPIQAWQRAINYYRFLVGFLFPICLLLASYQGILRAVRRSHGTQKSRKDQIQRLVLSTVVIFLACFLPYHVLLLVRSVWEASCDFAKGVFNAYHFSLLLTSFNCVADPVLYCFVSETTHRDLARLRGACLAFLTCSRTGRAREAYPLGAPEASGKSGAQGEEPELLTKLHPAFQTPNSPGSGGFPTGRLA

T1 sequence (Q8IYL9 whole entry): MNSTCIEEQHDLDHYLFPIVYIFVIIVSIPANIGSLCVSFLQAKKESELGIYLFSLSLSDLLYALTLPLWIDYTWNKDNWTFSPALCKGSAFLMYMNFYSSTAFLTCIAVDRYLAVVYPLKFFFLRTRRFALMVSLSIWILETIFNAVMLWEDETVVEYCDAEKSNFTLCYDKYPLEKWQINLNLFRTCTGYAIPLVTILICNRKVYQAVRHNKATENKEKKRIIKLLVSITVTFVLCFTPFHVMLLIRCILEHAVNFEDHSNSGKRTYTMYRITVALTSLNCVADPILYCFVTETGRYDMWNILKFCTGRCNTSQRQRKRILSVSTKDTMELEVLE

Molecule	activation of SRE reporter (TDAG8 [1]) [fold]	internalization of GPR4 (GPR4 [2])	increase of cell migration over GFP-Swiss 3T3 cells (GPR4 [3]) [fold]	chemokinetic assay: cell motility vs controls (GPR4 [3])	binding to TDAG8 (TDAG8 [4])	concentration at which ERK activation was evident (GPR4 [5])	time point at which ERK activation was evident (GPR4 [5]) [min]	GPR4-dependent ERK activation (in words) (GPR4 [5])	TDAG8 receptor internalization (TDAG8 [6])	increase of cell migration compared with control cells (TDAG8 [7])	cell migration in Transwell (in words) (GPR4 [8])	MAP kinase activation (reporter) (OGR1)
CCCCCCCCCCCCCCCC(=O)OC[C@@H](O)COP(=O)([O-])OCC[N+](C)(C)C [16:0-LPC]	3.1	induced internalization of GPR4	1.7	did not significantly change cell motility	–	–	–	–	–	–	–	–
CCCCCCCCCCCCC/C=C/[C@@H](O)[C@@H](N)COP(=O)([O-])OCC[N+](C)(C)C [SPC, Sphingosylphosphorylcholine]	4	induced internalization of GPR4	2.0	did not significantly change cell motility	able to bind to TDAG8	approximately 10 nM	1	enhanced ERK activation	induced TDAG8 receptor internalization	four to five-fold	increased cell migration	only achieved by SPC
lysophosphatidylcholine [LPC]	–	–	–	–	able to bind to TDAG8	~100 nM	5	enhanced ERK activation	not	four to five-fold	increased cell migration	weakly inhibitory
